Assay [1] relates to multiple myeloma patients. In words: Carfilzomib data analysis: IGH/IGK/IGL and FCGR2B expression (RNA-Seq, FPKQ, CD138+ tumor cells) versus response, cutoffs with % sensitivity/% specificity (ROC) and time-to-progression on single-agent carfilzomib. It is filed as in vivo, human. The procedure:
(§1) Bone marrow samples were aspirated from patients enrolled on Onyx-sponsored Phase 2 trials (NCT00511238, NCT00530816, and NCT00721734) prior to treatment with single-agent carfilzomib. Myeloma tumor cells were isolated by EasySep® immunomagnetic bead-based CD138+ selection (StemCell Technologies), re-suspended in TRIzol (Life Technologies) and frozen at […]. RNA was extracted from these samples with the PureLink RNA kit from Life Technologies (Cat #12183018A), following the recommended protocol for cells in TRIzol suspension, including the optional on-column DNase treatment. Elution volumes ranged from 75 μl-30 μl depending on the total number of cells going into isolation. ERCC control sequences from Life Technologies (ERCC ExFold RNA Spike-In Mix; Cat #4456739) were spiked in to all total RNA samples of sufficient quantity (Nanodrop yield>=150 ng) and quality (Bioanalyzer RIN>=7.0). For 500 ng input libraries, 1 μl of a 1:100 dilution of Mix 1 was added to each total RNA sample and for 150 ng input libraries, 3 μl of a 1:1000 dilution of Mix 1 was added to each total RNA sample. The resulting material was used to construct RNA-Seq libraries with Illumina's TruSeq RNA sample prep kit v2 (Cat #RS-122-2001), with PolyA selection included as the first step. Libraries were sequenced on Illumina's HiSeq 2000 with a target of 70 million fragments using 100×100 bp paired-end sequencing to generate 140 million reads per sample and the resulting raw data was QC-ed with metrics implemented in OmicSoft Array Studio v6.1.
(§2) Raw sequence reads were aligned and expression of genes & isoforms were quantified with a customized pipeline also built in Array Studio v6.1 [Jun]. This pipeline accepts Illumina adapter-stripped, paired-end reads that are trimmed at the […] if a base reaches PHRED quality score Q2 or lower. All reads are aligned to the transcriptome, which consists of the RefGene annotation of human hg19 supplemented with the more rich Ig loci annotations available from ENSEMBL. Reads aligned with mismatches and unaligned reads are subsequently aligned to the entire human genome, searching for novel exon junctions. Reads that remain unaligned are then aligned to the newly identified exon junctions. Alignments to the different references are compared and the highest scoring alignment is retained, or in the event of a tie, the transcriptome alignment is preferentially kept. Finally, all transcriptome alignment locations are translated to genomic coordinates to estimate the expected number of mappings per gene/isoform using the EM algorithm [Dempster]. The EM algorithm assigns reads with multiple alignment locations to an isoform by calculating the conditional probability of a read aligning to a specific isoform, given all other alignments. Weighting the total number of aligned reads with this probability yields posterior expected read counts for each transcript. The EM counts are normalized by the length of the genes/isoforms and number of reads in a library to yield FPKM values (Fragments Per Kilobase per Million reads). Between-sample normalization is achieved by 75th quantile normalization, where each sample is scaled by the median of 75th quantiles from all samples to yield quantile-normalized FPKM or “FPKQ” values.
The FPKQ values corresponding to each “gene” of the three Ig loci, IGH (immunoglobulin heavy locus), IGK (immunoglobulin kappa locus) and IGL (immunoglobulin lambda locus), were summed to produce locus-level expression estimates.
Patients with a best overall response of minimal response (MR) or better (i.e., MR, partial response [PR], very good partial response [VGPR] and complete response [CR]) were grouped into a responder category (N=27; abbreviated as “R”) and patients with a best overall response of stable disease (SD) or worse (i.e., SD and progressive disease [PD]) were grouped into a non-responder category (N=33; abbreviated as “NR”). […]

In assay [2] the test system is IG expression. Kind of assay: IG expression in tumor sample of one patient at screening and on Cycle 1 Day 2 of single-agent carfilzomib (RNA-Seq). The class given is in vivo, human. The protocol:
as §1, §2
To understand, how IG expression changes during treatment with proteasome inhibitors, the data was examined from one patient for which both a screening tumor sample and a sample collected on Cycle 1 Day 2 (C1D2) of treatment with single-agent carfilzomib were available.

In assay [3] the test system is Line A (high Ig) hybridoma cells. In words: Hybridoma sensitivity to carfilzomib, CellTiter-Glo Luminescent Cell Viability Assay, Line A. Conditions: 72h treatment, viability vs no treatment control, read-out: inhibitory concentration (IC50) on the cells of Line A. The class given is cell-based. The procedure:
(§3) The two hybridoma cell lines were tested for sensitivity to carfilzomib. Cells of each of Line A (high Ig) and Line B (low Ig) were treated with various doses (40 nM, 30 nM, 20 nM, 15 nM, l0 nM, 7.5 nM, 5 nM, 3.75 nM and 2.5 nM) of carfilzomib for 72h. The viability of the cells were then measured by CellTiter-Glo® Luminescent Cell Viability Assay (Cat. No. G7570; Promega Corporation) and compared to no treatment control.

In assay [4] the test system is Line B (low Ig) hybridoma cells. Kind of assay: Hybridoma sensitivity to carfilzomib, CellTiter-Glo Luminescent Cell Viability Assay, Line B. It is filed as cell-based. The following applies: 72h treatment, viability vs no treatment control. The protocol:
as §3

Assay [5] relates to high and low Ig-expressing hybridoma cell lines. Kind of assay: Drug sensitivity assay on two additional pairs of high and low Ig-expressing hybridoma cell lines. It is filed as cell-based.
Assay [6] relates to multiple myeloma patients. Kind of assay: Bortezomib data analysis: combined Ig expression score (Affymetrix microarray, CD138+ tumor cells, GSE9782) versus response and time-to-progression on single-agent bortezomib or dexamethasone. Conditions: bortezomib-treated patients. The class given is in vivo, human. From the text:
Publicly available RNA microarray data in tab-delimited text format were downloaded from the Gene Expression Omnibus (GEO ID: GSE9782).
A list of 55 probes from this Affymetrix microarray platform that map to genes encoding immunoglobulin (Ig)-related proteins was obtained from Rody et al. Addition File 5. This example tested for an association between normalized intensity of each of these 55 probes and bortezomib response, which was labeled as “PGx_Responder=R” in the dataset. […] The finding of 13 significant associations is far more than expected by chance (Binomial P-value=2×10^−6). […] It is not surprising that many probes are not associated, given that some map to rarer, patient-specific portions of the Ig loci and that others map to regions that are unusually highly-expressed, and therefore not well-measured with microarray technology (i.e., their fluorescence is likely to be saturated).
Patients were classified as achieving complete response (CR), partial response (PR), minimal response (MR), no change (NC), or progressive disease (PD), using European Group for Bone Marrow Transplantation criteria. In brief, PD requires 25% increase in paraprotein, whereas MR, PR, and CR require at least 25%, 50%, and 100% decreases, respectively.
Various mean IG expression cutoffs were considered to maximize the clinical utility of a potential diagnostic test. Ultimately, a cutoff of 0.29 (defining “IG-High”>=0.29 and “IG-Low”<0.29) was chosen, predicting response in the training data with 71% sensitivity and 62% specificity. This same cutoff was then applied to time-to-progression (TTP) data for these patients, finding that IG-High patients in this cohort have a 1.4-fold longer median TTP than IG-Low patients (8.4 months vs. 6.0 months; log-rank P-value=0.025).

Setting [7] is: FCGR2B cutoffs 75 and 5 combined with IGH-High cutoff 140,000.
The mark [8] stands for this setting: Screening vs C1D2, one patient, single-agent carfilzomib.
The mark [9] stands for this setting: one patient, tumor sample on Cycle 1 Day 2 of single-agent carfilzomib.

Where “and” joins values, the source holds several entries; their conditions need not be identical. Equal values may be shown once.

For `CC(C)C[C@H](NC(=O)[C@H](CCc1ccccc1)NC(=O)CN1CCOCC1)C(=O)N[C@@H](Cc1ccccc1)C(=O)N[C@@H](CC(C)C)C(=O)[C@@]1(C)CO1` [carfilzomib], in assay [1] (setting [7]), the “median TTP, IGH+FCGR2B-Negative patients” value came out at 1.2 months and the “median TTP, IGH+FCGR2B-Positive patients” value was found to be 8.9 months. In addition, the “median TTP (time to progression), IGH-Low patients” value in assay [1] (IGH FPKQ <160,000) was 1.4 months and 1.3 months. In addition, the “median TTP (time to progression), IGH-High patients” value in assay [1] (IGH FPKQ >=160,000) was 7.6 months and 7.3 months. Besides, the “fold longer median TTP, IGH-High vs IGH-Low patients” value in assay [1] (log-rank P-value=0.003) was 6 fold and 5.4 fold. Also, the “fold longer median TTP, IGH+FCGR2B-Positive vs IGH+FCGR2B-Negative patients” value in assay [1] (log-rank P-value=3×10−5) amounted to 7.3 fold. Besides, in assay [2] (setting [8]), the “Fold-Change of expression, gene ICKV3-20” value is 4.11; the “Fold-Change of expression, gene IGHA1” value is on record as 3.37; the “Fold-Change of expression, gene IGHV3-30” value amounted to 3.63; the “Fold-Change of expression, gene IGHV3-33” value turned out to be 3.77. Moreover, the “Fold-Change of expression, gene IGKC” value in assay [2] (setting [8]) was 3.88. In addition, in assay [2] (one patient, screening vs C1D2), the “IG expression lower in the sample collected one day after the first dose” value was 3- to 4 fold. In assay [2] (setting [9]), the “Expression C1D2, gene ICKV3-20” value is on record as 9.6E+04; the “Expression C1D2, gene IGHA1” value turned out to be 1.3E+05; the “Expression C1D2, gene IGHV3-30” value turned out to be 2.4E+04; the “Expression C1D2, gene IGHV3-33” value was determined as 2.1E+04. Besides, in assay [2] (setting [9]), the “Expression C1D2, gene IGKC” value is on record as 1.4E+05. Further, the IC50 in assay [3] is 10.4 nM. In assay [4], this compound displayed an IC50 of 24.3 nM. Also, the “sensitivity of high Ig-expressing hybridoma lines relative to low Ig-expressing lines” value in assay [5] is given as “greater sensitivity”.
Turning to `CC(C)C[C@H](NC(=O)[C@H](Cc1ccccc1)NC(=O)c1cnccn1)B(O)O` [bortezomib], the “fold longer median TTP, IG-High vs IG-Low patients” value in assay [6] (cutoff 0.29, log-rank P-value=0.025) is listed as 1.4 fold. Further, in assay [6] (mean IG expression score <0.29), the “median TTP (time-to-progression), IG-Low patients” value was 6.0 months. Further, the “median TTP (time-to-progression), IG-High patients” value in assay [6] (mean IG expression score >=0.29) was determined as 8.4 months.

The values are drawn from US10870889B2, “Immunoglobulin expression levels as biomarker for proteasome inhibitor response” (Onyx Therapeutics, Inc., priority 2013, dated 2020).
